Measured values published in patent US20260285850A1, “SUBSTITUTED OXAZOLIDINONES AND IMIDAZOLINONES AS HERBICIDES” (FMC CORPORATION, priority 2023, published 2026).

Experiments:
Format in all cases: in vivo
[1] = test system: barnyardgrass (Echinochloa crus-galli); test: Test A preemergence soil spray, visual injury rating 0-100; conditions: 10 days
In short: (§1)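 Visual injury ratings (0, no effect; 100, complete control) were assigned relative to untreated plants 10 days after treatment. Test chemicals, formulated with a surfactant-containing non-phytotoxic solvent, were applied in loam-sand soil either as a directed soil spray before emergence or to emerged plants, and plants were kept in a greenhouse.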

[2] = test system: blackgrass (Alopecurus myosuroides); test: as above; conditions: 10 days
In short: as §1

corn (Zea mays) [3] = test: as above; conditions: 10 days
In short: as §1

[4] = test system: green foxtail (Setaria viridis); test: as above; conditions: 10 days
In short: as §1

kochia (Bassia scoparia) [5] = test: as above; conditions: 10 days
In short: as §1

[6] = test system: oat, wild (wild oat, Avena fatua); test: as above; conditions: 10 days
In short: as §1

[7] = test system: ragweed (common ragweed, Ambrosia artemisiifolia); test: as above; conditions: 10 days
In short: as §1

[8] = test system: ryegrass, Italian (italian ryegrass, Lolium multiflorum); test: as above; conditions: 10 days
In short: as §1

soybean (Glycine max) [9] = test: as above; conditions: 10 days
In short: as §1

[10] = test system: wheat (Triticum aestivum); test: as above; conditions: 10 days
In short: as §1

[11] = test system: barnyardgrass (Echinochloa crus-galli); test: Test A postemergence application, visual injury rating 0-100
In short: as §1

[12] = test system: blackgrass (Alopecurus myosuroides); test: as above
In short: as §1

corn (Zea mays) [13] = test: as above
In short: as §1

[14] = test system: galium (catchweed bedstraw, Galium aparine); test: as above
In short: as §1

[15] = test system: green foxtail (Setaria viridis); test: as above
In short: as §1

[16] = test system: horseweed (Erigeron canadensis); test: as above
In short: as §1

kochia (Bassia scoparia) [17] = test: as above
In short: as §1

[18] = test system: oat, wild (wild oat, Avena fatua); test: as above
In short: as §1

[19] = test system: palmer (palmer amaranth, palmer pigweed, Amaranthus palmeri); test: as above
In short: as §1

[20] = test system: ragweed (common ragweed, Ambrosia artemisiifolia); test: as above
In short: as §1

[21] = test system: ryegrass, Italian (italian ryegrass, Lolium multiflorum); test: as above
In short: as §1

soybean (Glycine max) [22] = test: as above
In short: as §1

[23] = test system: wheat (Triticum aestivum); test: as above
In short: as §1

[24] = test system: barnyardgrass (Echinochloa crusgalli); test: Test B flooded paddy test, visual plant response rating 0-100; conditions: 250 g ai/ha, Flood, applied to paddy water, evaluated after 13 days
In short: (§2)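 Treatment occurs at the 2-leaf stage by adding compound to floodwater standing 3 cm above the soil, a level kept for the whole test. Plants stay in the greenhouse 13 days before visual comparison with controls.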

[25] = test system: ducksalad (Heteranthera limosa); test: as above; conditions: 250 g ai/ha, Flood, applied to paddy water, evaluated after 13 days
In short: as §2

rice (Oryza sativa) = test: as above; conditions: 250 g ai/ha, Flood, applied to paddy water, evaluated after 13 days
In short: as §2

[26] = test system: sedge, umbrella (small-flower umbrella sedge, Cyperus difformis); test: as above; conditions: 250 g ai/ha, Flood, applied to paddy water, evaluated after 13 days
In short: as §2

[27] = 62 g ai/ha, 0 = no effect, 100 = complete control
[28] = 62 g ai/ha, postemergence, 10 days, 0 = no effect, 100 = complete control
[29] = Postemergence, 16 g ai/ha, greenhouse 10 days, 0 no effect, 100 complete control

Compound: CC1(C(=O)NC2CC(C(=O)O)C2)CN(c2cc(F)cc(Cl)c2)C(=O)O1 (racemic) [Compound 139]
- Barnyardgrass plant response rating ([1]; 16 g ai/ha, 0 to 100 scale): 10
- Barnyardgrass plant response rating (0-100) [1, 27]: 70
- Blackgrass plant response rating ([2]; 16 g ai/ha, 0 to 100 scale): 20
- Blackgrass plant response rating (0-100) [2, 27]: 80
- Corn plant response rating (corn (Zea mays) [3]; 16 g ai/ha, 0 to 100 scale): 0
- Corn plant response rating (0-100) (corn (Zea mays) [3]; [27]): 90
- Foxtail, Green plant response rating ([4]; 16 g ai/ha, 0 to 100 scale): 30
- Foxtail, Green plant response rating (0-100) [4, 27]: 90
- Kochia plant response rating (kochia (Bassia scoparia) [5]; 16 g ai/ha, 0 to 100 scale): 0
- Kochia plant response rating (0-100) (kochia (Bassia scoparia) [5]; [27]): 90
- Oat, Wild plant response rating ([6]; 16 g ai/ha, 0 to 100 scale): 20
- Oat, Wild plant response rating (0-100) [6, 27]: 80
- Ragweed plant response rating ([7]; 16 g ai/ha, 0 to 100 scale): 0
- Ragweed plant response rating (0-100) [7, 27]: 0
- Ryegrass, Italian plant response rating ([8]; 16 g ai/ha, 0 to 100 scale): 30
- Ryegrass, Italian plant response rating (0-100) [8, 27]: 90
- Soybean plant response rating (soybean (Glycine max) [9]; 16 g ai/ha, 0 to 100 scale): 0
- Soybean plant response rating (0-100) (soybean (Glycine max) [9]; [27]): 0
- Wheat plant response rating ([10]; 16 g ai/ha, 0 to 100 scale): 90
- Wheat plant response rating (0-100) [10, 27]: 90
- Barnyardgrass plant response rating (0-100) [11, 28]: 100
- Barnyardgrass plant response rating (0 to 100 scale) [11, 29]: 90
- Blackgrass plant response rating (0-100) [12, 28]: 100
- Blackgrass plant response rating (0 to 100 scale) [12, 29]: 90
- Corn plant response rating (0-100) (corn (Zea mays) [13]; [28]): 100
- Corn plant response rating (0 to 100 scale) (corn (Zea mays) [13]; [29]): 100
- Galium plant response rating (0-100) [14, 28]: 80
- Galium plant response rating (0 to 100 scale) [14, 29]: 50
- Foxtail, Green plant response rating (0-100) [15, 28]: 90
- Foxtail, Green plant response rating (0 to 100 scale) [15, 29]: 90
- Horseweed plant response rating (0-100) [16, 28]: 50
- Horseweed plant response rating (0 to 100 scale) [16, 29]: 0
- Kochia plant response rating (0-100) (kochia (Bassia scoparia) [17]; [28]): 90
- Kochia plant response rating (0 to 100 scale) (kochia (Bassia scoparia) [17]; [29]): 70
- Oat, Wild plant response rating (0-100) [18, 28]: 90
- Oat, Wild plant response rating (0 to 100 scale) [18, 29]: 70
- Pigweed, Palmer plant response rating (0-100) [19, 28]: 70
- Pigweed, Palmer plant response rating (0 to 100 scale) [19, 29]: 20
- Ragweed plant response rating (0-100) [20, 28]: 40
- Ragweed plant response rating (0 to 100 scale) [20, 29]: 40
- Ryegrass, Italian plant response rating (0-100) [21, 28]: 70
- Ryegrass, Italian plant response rating (0 to 100 scale) [21, 29]: 30
- Soybean plant response rating (0-100) (soybean (Glycine max) [22]; [28]): 60
- Soybean plant response rating (0 to 100 scale) (soybean (Glycine max) [22]; [29]): 60
- Wheat plant response rating (0-100) [23, 28]: 90
- Wheat plant response rating (0 to 100 scale) [23, 29]: 90
- Plant response rating, Barnyardgrass (0 to 100 scale, 0 is no effect and 100 is complete control) [24]: 0
- Plant response rating, Ducksalad (0 to 100 scale, 0 is no effect and 100 is complete control) [25]: 0
- Plant response rating, Rice (0 to 100 scale, 0 is no effect and 100 is complete control) (rice (Oryza sativa)): 0
- Plant response rating, Sedge, Umbrella (0 to 100 scale, 0 is no effect and 100 is complete control) [26]: 0
